{
  "source": "ChEMBL document CHEMBL4765275",
  "about": "“Discovery of novel tertiary amide derivatives as NEDDylation pathway activators to inhibit the tumor progression in vitro and in vivo” (Eur J Med Chem, 2020)",
  "key": {"MGC-803 [1]": {"system": "MGC-803", "assay": "Induction of apoptosis in human MGC-803 cells assessed as early apoptotic cells at 100 nmol/L measured after 48 hrs by Annexin V-FITC/propidium iodide staining based flow cytometry (reference value: 2.2%)", "type": "functional"}, "MGC-803 [2]": {"system": "MGC-803", "assay": "Antitumor activity against human MGC-803 cells xenografted in mouse assessed as reduction in tumor weight at 100 mg/kg, sc measured after 28 days relative to control", "type": "functional", "parameters": "scale not given: the % may be the effect or the level left", "conditions": "time 28 day"}, "MGC-803 [3]": {"system": "MGC-803", "assay": "Induction of apoptosis in human MGC-803 cells assessed as down regulation of c-IAP1 expression at 150 nmol/L measured after 24 hrs in presence of protein synthesis inhibitor CHX by Western blot analysis", "type": "functional, cell-based"}, "MGC-803 [4]": {"system": "MGC-803", "assay": "Antiproliferative activity against human MGC-803 cells assessed as cell viability measured after 48 hrs by MTT assay relative to control", "type": "functional"}, "MGC-803 [5]": {"system": "MGC-803", "assay": "Induction of apoptosis in human MGC-803 cells assessed as viable cells at 150 nmol/L measured after 48 hrs by Annexin V-FITC/propidium iodide staining based flow cytometry (reference value: 91.7%)", "type": "functional", "conditions": "read-out: Activity"}, "MGC-803 [6]": {"system": "MGC-803", "assay": "Induction of apoptosis in human MGC-803 cells assessed as down regulation of Bcl-2 expression at 50 to 150 nmol/L measured after 48 hrs by Western blot analysis", "type": "functional, cell-based", "conditions": "dose 50-150 nmol/L"}, "MGC-803 [7]": {"system": "MGC-803", "assay": "Cell cycle arrest in human MGC-803 cells assessed as accumulation at S phase at 50 nmol/L measured after 48 hrs by propidium iodide staining based flow cytometry (reference value: 34.48%)", "type": "functional"}, "MGC-803 [8]": {"system": "MGC-803", "assay": "Induction of apoptosis in human MGC-803 cells assessed as viable cells at 50 nmol/L measured after 48 hrs by Annexin V-FITC/propidium iodide staining based flow cytometry (reference value: 91.7%)", "type": "functional", "conditions": "read-out: Activity"}, "MGC-803 [9]": {"system": "MGC-803", "assay": "Induction of apoptosis in human MGC-803 cells assessed as down regulation of c-IAP1 expression at 150 nmol/L measured after 24 hrs in presence of NEDDylation inhibitor MLN4924 by Western blot analysis", "type": "functional, cell-based"}, "MGC-803 [10]": {"system": "MGC-803", "assay": "Induction of apoptosis in human MGC-803 cells assessed as upregulation of PIDD expression at 50 to 150 nmol/L measured after 48 hrs by Western blot analysis", "type": "functional, cell-based", "conditions": "dose 50-150 nmol/L"}, "MCF7": {"system": "MCF7", "assay": "Antiproliferative activity against human MCF7 cells measured after 48 hrs by MTT assay", "type": "functional, cell-based", "conditions": "MCF7, 48 h"}, "MGC-803 [11]": {"system": "MGC-803", "assay": "Induction of apoptosis in human MGC-803 cells assessed as necrotic cells at 150 nmol/L measured after 48 hrs by Annexin V-FITC/propidium iodide staining based flow cytometry (reference value: 0.5%)", "type": "functional"}, "MGC-803 [12]": {"system": "MGC-803", "assay": "Induction of apoptosis in human MGC-803 cells assessed as down regulation of c-IAP1 expression at 150 nmol/L measured after 24 hrs in presence of proteasome inhibitor […] by Western blot analysis", "type": "functional, cell-based"}, "MGC-803 [13]": {"system": "MGC-803", "assay": "Induction of apoptosis in human MGC-803 cells assessed as increase in activated caspase-9 expression at 50 to 150 nmol/L measured after 48 hrs by Western blot analysis", "type": "functional, cell-based", "conditions": "dose 50-150 nmol/L"}, "MGC-803 [14]": {"system": "MGC-803", "assay": "Induction of apoptosis in human MGC-803 cells assessed as late apoptotic cells at 50 nmol/L measured after 48 hrs by Annexin V-FITC/propidium iodide staining based flow cytometry (reference value: 5.6%)", "type": "functional"}, "[15]": {"target": "T1, NEDD8-activating enzyme E1 regulatory subunit (Homo sapiens) (UniProt Q13564)", "T1 sequence (whole entry)": "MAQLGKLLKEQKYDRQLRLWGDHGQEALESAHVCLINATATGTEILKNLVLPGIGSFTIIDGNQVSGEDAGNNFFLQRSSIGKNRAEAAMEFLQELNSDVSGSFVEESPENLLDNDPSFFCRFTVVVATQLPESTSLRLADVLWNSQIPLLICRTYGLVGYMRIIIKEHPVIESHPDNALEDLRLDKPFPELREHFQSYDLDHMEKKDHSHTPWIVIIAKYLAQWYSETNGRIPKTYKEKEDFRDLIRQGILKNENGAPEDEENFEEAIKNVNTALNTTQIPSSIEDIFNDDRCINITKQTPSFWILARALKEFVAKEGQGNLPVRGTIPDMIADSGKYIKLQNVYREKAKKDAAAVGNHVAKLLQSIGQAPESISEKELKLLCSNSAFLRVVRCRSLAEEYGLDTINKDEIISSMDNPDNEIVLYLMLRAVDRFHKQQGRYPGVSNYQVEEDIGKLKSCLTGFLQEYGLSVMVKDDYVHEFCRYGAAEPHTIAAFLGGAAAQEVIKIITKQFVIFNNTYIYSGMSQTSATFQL", "assay": "Activation of NAE1-mediated neddylation in human MGC-803 cells assessed as increase in Nedd8-CUL1 adduct formation at 50 to 150 nmol/L measured after 24 hrs by Western blot analysis", "type": "cell-based", "conditions": "filed as activator, dose 50-150 nmol/L"}, "MGC-803 [16]": {"system": "MGC-803", "assay": "Induction of morphological changes in human MGC-803 cells assessed as nuclear fragmentation at 50 to 150 nmol/L measured after 48 hrs by DAPI staining based assay", "type": "functional, cell-based", "conditions": "dose 50-150 nmol/L"}, "MGC-803 [17]": {"system": "MGC-803", "assay": "Induction of apoptosis in human MGC-803 cells assessed as upregulation of Fasl expression at 50 to 150 nmol/L measured after 48 hrs by Western blot analysis", "type": "functional, cell-based", "conditions": "dose 50-150 nmol/L"}, "MGC-803 [18]": {"system": "MGC-803", "assay": "Induction of apoptosis in human MGC-803 cells assessed as upregulation of FADD expression at 50 to 150 nmol/L measured after 48 hrs by Western blot analysis", "type": "functional, cell-based", "conditions": "dose 50-150 nmol/L"}, "MGC-803 [19]": {"system": "MGC-803", "assay": "Antiproliferative activity against human MGC-803 cells assessed as cell viability measured after 48 hrs in presence of NEDDylation inhibitor MLN4924 by MTT assay relative to control", "type": "functional"}, "MGC-803 [20]": {"system": "MGC-803", "assay": "Induction of apoptosis in human MGC-803 cells assessed as viable cells at 100 nmol/L measured after 48 hrs by Annexin V-FITC/propidium iodide staining based flow cytometry (reference value: 91.7%)", "type": "functional", "conditions": "read-out: Activity"}, "MGC-803 [21]": {"system": "MGC-803", "assay": "Antitumor activity against human MGC-803 cells xenografted in mouse assessed as reduction in tumor volume at 100 to 150 mg/kg, sc measured after 28 days by caliper method", "type": "functional, organism-based", "conditions": "dose 100-150 mg/kg, time 28.0 day"}, "MGC-803 [22]": {"system": "MGC-803", "assay": "Induction of apoptosis in human MGC-803 cells assessed as down regulation of Bcl-xL expression at 50 to 150 nmol/L measured after 48 hrs by Western blot analysis", "type": "functional, cell-based", "conditions": "dose 50-150 nmol/L"}, "MGC-803 [23]": {"system": "MGC-803", "assay": "Induction of apoptosis in human MGC-803 cells assessed as down regulation of XIAP expression at 150 nmol/L measured after 24 hrs in presence of NEDDylation inhibitor MLN4924 by Western blot analysis", "type": "functional, cell-based"}, "MGC-803 [24]": {"system": "MGC-803", "assay": "Induction of apoptosis in human MGC-803 cells assessed as viable cells at 75 nmol/L measured after 48 hrs by Annexin V-FITC/propidium iodide staining based flow cytometry (reference value: 91.7%)", "type": "functional", "conditions": "read-out: Activity"}, "[25]": {"target": "T1, NEDD8-activating enzyme E1 regulatory subunit (Homo sapiens)", "assay": "Stabilization of NAE1 (unknown origin) at 150 nmol/L by CETSA", "conditions": "filed as activator"}, "MGC-803 [26]": {"system": "MGC-803", "assay": "Induction of apoptosis in human MGC-803 cells assessed as upregulation of Bax expression at 50 to 150 nmol/L measured after 48 hrs by Western blot analysis", "type": "functional, cell-based", "conditions": "dose 50-150 nmol/L"}, "MGC-803 [27]": {"system": "MGC-803", "assay": "Induction of apoptosis in human MGC-803 cells assessed as necrotic cells at 50 nmol/L measured after 48 hrs by Annexin V-FITC/propidium iodide staining based flow cytometry (reference value: 0.5%)", "type": "functional"}},
  "note": "The source made the active and inactive calls. No cut-off for these calls is given here.",
  "data": [
    {"smiles": "COc1ccc(CN(C(=O)Cc2cccs2)c2cc(OC)c(OC)c(OC)c2)cc1", "values": [
      {"measurement": "Activity", "setting": "MGC-803 [1]", "result": 42.4, "unit": "%"},
      {"measurement": "Activity", "setting": "MGC-803 [2]", "result": 42, "unit": "%"},
      {"measurement": "Activity", "setting": "MGC-803 [3]", "result": "Active"},
      {"measurement": "Activity", "setting": "MGC-803 [4]", "result": 12.1, "unit": "%"},
      {"measurement": "viability at 0.15 µM", "setting": "MGC-803 [5]", "result": 8.6, "unit": "%"},
      {"measurement": "Activity", "setting": "MGC-803 [6]", "result": "Active"},
      {"measurement": "Activity", "setting": "MGC-803 [7]", "result": 27.68, "unit": "%"},
      {"measurement": "viability at 0.05 µM", "setting": "MGC-803 [8]", "result": 87.7, "unit": "%"},
      {"measurement": "Activity", "setting": "MGC-803 [9]", "result": "inactive"},
      {"measurement": "Activity", "setting": "MGC-803 [10]", "result": "Active"},
      {"measurement": "IC50", "setting": "MCF7", "result": 100, "unit": "nM"},
      {"measurement": "Activity", "setting": "MGC-803 [11]", "result": 3.8, "unit": "%"},
      {"measurement": "Activity", "setting": "MGC-803 [12]", "result": "inactive"},
      {"measurement": "Activity", "setting": "MGC-803 [13]", "result": "Active"},
      {"measurement": "Activity", "setting": "MGC-803 [14]", "result": 6.5, "unit": "%"},
      {"measurement": "Activity", "setting": "[15]", "result": "Active"},
      {"measurement": "Activity", "setting": "MGC-803 [16]", "result": "Active"},
      {"measurement": "Activity", "setting": "MGC-803 [17]", "result": "Active"},
      {"measurement": "Activity", "setting": "MGC-803 [18]", "result": "Active"},
      {"measurement": "Activity", "setting": "MGC-803 [19]", "result": 64.2, "unit": "%"},
      {"measurement": "viability at 0.1 µM", "setting": "MGC-803 [20]", "result": 32, "unit": "%"},
      {"measurement": "Activity", "setting": "MGC-803 [21]", "result": "Active"},
      {"measurement": "Activity", "setting": "MGC-803 [22]", "result": "Active"},
      {"measurement": "Activity", "setting": "MGC-803 [23]", "result": "Active"},
      {"measurement": "viability at 0.075 µM", "setting": "MGC-803 [24]", "result": 74.4, "unit": "%"},
      {"measurement": "Activity", "setting": "[25]", "result": "Active"},
      {"measurement": "Activity", "setting": "MGC-803 [26]", "result": "Active"},
      {"measurement": "Activity", "setting": "MGC-803 [27]", "result": 0.6, "unit": "%"}
    ]}
  ]
}
